Like-named read-outs stand apart in the source and are kept apart here.
How the values were obtained:
PI3Kβ = molecular target: T1, PI3Kβ (Homo sapiens, UniProt P42338); experiment: Enzyme binding assay (KINOMEscan, DiscoveRx); settings: PIK3Cβ_h, read-out: Kd PIK3Cβ_h
T1 construct: purchased DiscoveRx Corporation, San Diego (contract service, KINOMEscan)
Method in brief: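 Reported Kd (nM) reflects inhibitor binding to the kinase, as measured by KINOMEscan technology.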

PI3Kδ = molecular target: T2, PI3Kδ (Homo sapiens, UniProt O00329); experiment: Enzyme binding assay (KINOMEscan, DiscoveRx); settings: PIK3Cδ_h
T2 construct: purchased DiscoveRx Corporation, San Diego (contract service, KINOMEscan)
T2 sequence (O00329 1-1044): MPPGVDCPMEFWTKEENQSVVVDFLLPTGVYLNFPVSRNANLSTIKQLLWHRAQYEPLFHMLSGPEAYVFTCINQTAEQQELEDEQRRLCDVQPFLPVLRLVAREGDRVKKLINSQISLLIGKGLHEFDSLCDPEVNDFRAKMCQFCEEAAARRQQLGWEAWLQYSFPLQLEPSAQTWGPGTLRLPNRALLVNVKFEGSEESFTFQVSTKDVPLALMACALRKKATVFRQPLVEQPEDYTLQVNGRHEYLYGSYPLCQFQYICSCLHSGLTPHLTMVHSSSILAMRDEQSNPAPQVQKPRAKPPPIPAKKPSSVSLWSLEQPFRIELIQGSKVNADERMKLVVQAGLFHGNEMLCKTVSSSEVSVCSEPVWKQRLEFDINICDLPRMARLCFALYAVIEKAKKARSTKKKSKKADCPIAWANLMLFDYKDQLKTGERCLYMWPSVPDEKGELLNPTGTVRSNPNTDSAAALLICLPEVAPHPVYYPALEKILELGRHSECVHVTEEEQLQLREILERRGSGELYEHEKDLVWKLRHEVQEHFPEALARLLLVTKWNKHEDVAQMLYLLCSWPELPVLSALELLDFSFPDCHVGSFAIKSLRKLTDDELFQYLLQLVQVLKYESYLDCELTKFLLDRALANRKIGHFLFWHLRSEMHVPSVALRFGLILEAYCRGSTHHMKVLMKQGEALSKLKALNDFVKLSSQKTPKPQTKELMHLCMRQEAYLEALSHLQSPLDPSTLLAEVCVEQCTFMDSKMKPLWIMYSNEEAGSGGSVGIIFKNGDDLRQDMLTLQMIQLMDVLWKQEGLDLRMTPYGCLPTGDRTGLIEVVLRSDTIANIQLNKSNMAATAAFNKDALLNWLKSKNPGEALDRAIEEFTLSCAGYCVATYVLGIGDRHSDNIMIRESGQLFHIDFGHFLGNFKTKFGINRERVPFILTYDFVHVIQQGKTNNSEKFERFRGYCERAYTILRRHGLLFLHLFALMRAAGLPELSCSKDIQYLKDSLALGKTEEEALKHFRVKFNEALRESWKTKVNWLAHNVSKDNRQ
Method in brief: (§1)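 Kinase binding measured via KINOMEscan, reported as affinity.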

kinase enzymes [1] = molecular target: T3, kinase enzymes (Homo sapiens, UniProt P42336); experiment: Enzyme binding assay (KINOMEscan, DiscoveRx), further kinases of Table A; settings: PIK3Cα_h
T3 construct: purchased DiscoveRx Corporation, San Diego (contract service, KINOMEscan)
T3 sequence (P42336 whole entry): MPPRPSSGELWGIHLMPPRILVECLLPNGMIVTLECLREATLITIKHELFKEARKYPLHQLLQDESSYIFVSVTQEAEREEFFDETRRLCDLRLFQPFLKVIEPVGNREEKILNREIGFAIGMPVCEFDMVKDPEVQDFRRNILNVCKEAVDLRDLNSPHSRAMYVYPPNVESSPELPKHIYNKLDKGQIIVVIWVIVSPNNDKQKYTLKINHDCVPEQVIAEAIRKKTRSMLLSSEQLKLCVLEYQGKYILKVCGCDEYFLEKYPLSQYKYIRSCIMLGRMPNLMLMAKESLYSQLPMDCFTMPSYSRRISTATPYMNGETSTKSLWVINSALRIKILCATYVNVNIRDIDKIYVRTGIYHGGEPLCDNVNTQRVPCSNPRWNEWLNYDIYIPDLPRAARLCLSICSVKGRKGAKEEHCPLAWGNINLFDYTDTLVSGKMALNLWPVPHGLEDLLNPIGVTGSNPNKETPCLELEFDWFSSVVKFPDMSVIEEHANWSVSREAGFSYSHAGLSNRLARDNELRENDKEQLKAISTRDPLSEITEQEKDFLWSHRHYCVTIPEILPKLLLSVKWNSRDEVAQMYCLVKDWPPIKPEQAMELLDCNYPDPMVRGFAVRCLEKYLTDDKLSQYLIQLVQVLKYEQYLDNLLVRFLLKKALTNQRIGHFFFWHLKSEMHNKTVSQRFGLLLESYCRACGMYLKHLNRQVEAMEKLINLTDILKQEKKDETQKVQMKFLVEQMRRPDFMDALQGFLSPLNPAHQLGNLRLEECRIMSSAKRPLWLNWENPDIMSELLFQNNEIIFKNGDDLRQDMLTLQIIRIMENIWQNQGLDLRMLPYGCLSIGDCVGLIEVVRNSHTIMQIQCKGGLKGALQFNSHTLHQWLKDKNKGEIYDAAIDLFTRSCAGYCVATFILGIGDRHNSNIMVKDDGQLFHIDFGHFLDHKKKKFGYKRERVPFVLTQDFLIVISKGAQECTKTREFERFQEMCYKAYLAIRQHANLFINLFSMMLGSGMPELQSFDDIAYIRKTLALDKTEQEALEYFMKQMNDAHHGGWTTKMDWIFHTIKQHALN
Method in brief: as §1

kinase enzymes [2] = molecular target: T4, kinase enzymes (Homo sapiens, UniProt P42345); experiment: as above; settings: MTOR_h
T4 construct: purchased DiscoveRx Corporation, San Diego (contract service, KINOMEscan)
Method in brief: as §1

kinase enzymes [3] = molecular target: T5, kinase enzymes (Homo sapiens, UniProt P48736); experiment: as above; settings: PIK3Cγ_h
T5 construct: purchased DiscoveRx Corporation, San Diego (contract service, KINOMEscan)
T5 sequence (P48736 whole entry): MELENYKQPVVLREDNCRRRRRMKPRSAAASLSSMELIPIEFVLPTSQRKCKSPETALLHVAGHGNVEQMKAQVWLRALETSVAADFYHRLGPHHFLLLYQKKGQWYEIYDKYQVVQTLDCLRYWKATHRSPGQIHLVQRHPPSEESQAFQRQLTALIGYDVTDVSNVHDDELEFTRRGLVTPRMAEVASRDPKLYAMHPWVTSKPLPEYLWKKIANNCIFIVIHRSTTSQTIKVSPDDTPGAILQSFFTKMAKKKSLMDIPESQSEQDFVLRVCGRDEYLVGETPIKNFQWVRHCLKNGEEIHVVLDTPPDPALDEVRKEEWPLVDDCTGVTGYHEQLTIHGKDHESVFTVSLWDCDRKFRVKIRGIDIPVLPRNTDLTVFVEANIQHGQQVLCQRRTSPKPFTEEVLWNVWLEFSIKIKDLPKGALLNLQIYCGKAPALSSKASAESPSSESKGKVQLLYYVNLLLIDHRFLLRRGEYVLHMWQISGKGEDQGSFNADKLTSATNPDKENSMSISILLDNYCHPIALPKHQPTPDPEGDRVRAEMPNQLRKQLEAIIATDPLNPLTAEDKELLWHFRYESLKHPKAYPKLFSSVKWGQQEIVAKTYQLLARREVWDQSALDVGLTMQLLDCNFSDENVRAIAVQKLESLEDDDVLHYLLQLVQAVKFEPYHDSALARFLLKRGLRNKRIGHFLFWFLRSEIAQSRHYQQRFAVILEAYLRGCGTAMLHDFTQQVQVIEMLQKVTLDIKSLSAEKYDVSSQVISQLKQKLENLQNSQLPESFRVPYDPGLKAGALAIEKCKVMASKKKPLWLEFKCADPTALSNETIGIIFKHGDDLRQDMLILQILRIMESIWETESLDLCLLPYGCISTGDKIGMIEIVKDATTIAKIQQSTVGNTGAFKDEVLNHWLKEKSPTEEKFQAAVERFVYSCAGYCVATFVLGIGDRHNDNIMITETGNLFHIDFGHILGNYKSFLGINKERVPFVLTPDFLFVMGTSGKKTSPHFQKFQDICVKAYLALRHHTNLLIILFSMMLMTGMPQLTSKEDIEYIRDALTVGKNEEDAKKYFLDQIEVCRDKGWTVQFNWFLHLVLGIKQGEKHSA
Method in brief: as §1

[4] = system: Akt phosphorylated at Ser473 in PC-3 cells; experiment: Cellular assay: phosphorylation of Akt at Ser473 in PC-3 cells (MSD ELISA); format: cell-based; settings: PC-3 cells, 60 min compound incubation, MSD ELISA, read-out: IC50 pAkt_S473
Method in brief: (§2)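 Compound treatment of PC-3 cells lasted 60 min at 37° C (0.3% DMSO). Lysates were then applied to plates carrying capture antibodies for the relevant phospho-site, and bound Akt was detected with an electrochemiluminescent anti-total Akt antibody; IC50s derive from five-point curves.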

[5] = system: Akt phosphorylated at Thr308 in PC-3 cells; experiment: Cellular assay: phosphorylation of Akt at Thr308 in PC-3 cells (MSD ELISA); format: cell-based; settings: PC-3 cells, 60 min compound incubation, MSD ELISA, read-out: IC50 pAkt_Thr308
Method in brief: as §2

T1 sequence (P42338 whole entry): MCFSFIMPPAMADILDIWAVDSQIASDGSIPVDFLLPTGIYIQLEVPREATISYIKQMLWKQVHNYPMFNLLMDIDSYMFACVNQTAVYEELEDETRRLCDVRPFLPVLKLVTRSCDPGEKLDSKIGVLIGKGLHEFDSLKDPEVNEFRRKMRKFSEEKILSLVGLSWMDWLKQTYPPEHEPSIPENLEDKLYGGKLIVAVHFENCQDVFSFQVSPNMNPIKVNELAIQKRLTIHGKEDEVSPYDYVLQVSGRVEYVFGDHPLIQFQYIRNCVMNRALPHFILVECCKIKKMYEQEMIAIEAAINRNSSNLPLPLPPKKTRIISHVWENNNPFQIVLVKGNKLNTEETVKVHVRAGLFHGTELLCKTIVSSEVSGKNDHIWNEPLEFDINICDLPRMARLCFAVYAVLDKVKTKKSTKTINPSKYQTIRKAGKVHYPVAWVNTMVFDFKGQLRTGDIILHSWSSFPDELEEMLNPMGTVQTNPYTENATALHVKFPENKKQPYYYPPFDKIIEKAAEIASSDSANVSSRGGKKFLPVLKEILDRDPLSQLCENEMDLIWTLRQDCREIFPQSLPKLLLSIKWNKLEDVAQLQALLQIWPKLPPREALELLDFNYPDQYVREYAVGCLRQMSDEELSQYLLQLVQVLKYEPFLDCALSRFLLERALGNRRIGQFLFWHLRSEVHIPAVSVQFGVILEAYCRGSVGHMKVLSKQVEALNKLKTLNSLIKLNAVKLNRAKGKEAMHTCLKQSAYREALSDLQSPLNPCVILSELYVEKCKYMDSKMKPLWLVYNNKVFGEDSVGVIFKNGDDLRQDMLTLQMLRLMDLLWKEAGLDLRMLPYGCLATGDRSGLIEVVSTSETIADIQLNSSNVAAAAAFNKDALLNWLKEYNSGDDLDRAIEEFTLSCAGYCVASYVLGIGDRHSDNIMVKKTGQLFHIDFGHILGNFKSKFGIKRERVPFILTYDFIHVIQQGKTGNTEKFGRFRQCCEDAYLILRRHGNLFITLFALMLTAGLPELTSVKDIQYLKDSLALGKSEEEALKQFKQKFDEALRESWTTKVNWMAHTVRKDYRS

Row | Kd (PI3Kβ) | Kd (PI3Kδ) | Kd (kinase enzymes [1]) | Kd (kinase enzymes [2]) | Kd (kinase enzymes [3]) | IC50 [4] | IC50 [5] | melting point | IC50 ([4]; Homo sapiens, PC-3, 1 h) | IC50 ([5]; Homo sapiens, PC-3, 1 h) | SMILES
1 | 11 nM | 1070 nM | 1510 nM | 25700 nM | 7240 nM | 115 nM | 68 nM | 89.8 °C | – | – | CC(Nc1cccc(F)c1)c1cc(C(=O)NC[C@@H](C)O)cc2ncc(N3CCOCC3)nc12 (single isomer, unassigned) [Compound 338a]
2 | 851 nM | > 30200 nM | 22900 nM | 20000 nM | 2340 nM | > 513 nM | > 513 nM | 90.8 °C | – | – | CC(Nc1cccc(F)c1)c1cc(C(=O)NC[C@@H](C)O)cc2ncc(N3CCOCC3)nc12 (single isomer, unassigned) [Compound 338b]
3 | 1380 nM | 9550 nM | 22900 nM | > 30200 nM | > 30200 nM | > 513 nM | > 513 nM | 74 °C | – | – | CC(Oc1cccc(F)c1)c1cc(C(=O)N2CCC[C@H]2CO)cc2ncc(N3CCOCC3)nc12 (single isomer, unassigned) [Compound 87]
4 | 2 nM | 269 nM | 2090 nM | 7760 nM | 3240 nM | 33 nM | 25 nM | 80 °C | – | – | CC(Nc1cc(F)c(F)c(F)c1)c1cc(C(=O)NCCO)cc2ncc(N3CCOCC3)nc12 (single isomer, unassigned) [Compound 213]
5 | 24 nM | 1590 nM | 2340 nM | 26300 nM | 18600 nM | – | – | 80 °C | 457 nM | ~372 nM | CN(C)C(=O)c1cc(NCc2ccc(F)cc2)c2nc(N3CCOCC3)cnc2c1 [Compound 400]
6 | 45 nM | 5250 nM | 2820 nM | > 30200 nM | 9330 nM | – | – | 202 °C | > 513 nM | > 513 nM | Cc1c(CNc2cc(C(=O)N(C)C)cc3ncc(N4CCOCC4)nc23)cccc1C(F)(F)F [Compound 399]
7 | 68 nM | 5490 nM | 4900 nM | 28800 nM | 11700 nM | – | – | 140 °C | > 513 nM | 309 nM | CC(Oc1cc(F)cc(F)c1)c1cc(C(=O)NCCO)cc2ncc(N3CCOCC3)nc12 (single isomer, unassigned) [Compound 199]
8 | 8 nM | 1120 nM | 4070 nM | 18600 nM | 5370 nM | – | – | 217 °C | 200 nM | 102 nM | CC(Nc1cc(F)cc(F)c1)c1cc(C(=O)NC(C)(C)CO)cc2ncc(N3CCOCC3)nc12 (centres unmarked) [Compound 169]
9 | 12 nM | 759 nM | 7080 nM | 12000 nM | 18200 nM | – | – | 218 °C | 145 nM | 141 nM | O=C(NCCO)c1cc(NCc2cccc(F)c2)c2nc(N3CCOCC3)cnc2c1 [Compound 230]
10 | 2 nM | 389 nM | 2820 nM | > 30200 nM | 9550 nM | – | – | 80 °C | 102 nM | 30 nM | CCN1CCN(C(=O)c2cc(C(C)Nc3cc(F)cc(F)c3)c3nc(N4CCOCC4)cnc3c2)CC1 (centres unmarked) [Compound 143]
11 | 490 nM | 14800 nM | 20900 nM | 25100 nM | 7760 nM | > 513 nM | > 513 nM | 90 °C | – | – | CC(Nc1cc(F)cc(F)c1)c1cc(CO)cc2ncc(N3CCOCC3)nc12 (single isomer, unassigned) [Compound 154b]
12 | 0.4 nM | 40 nM | 263 nM | > 30200 nM | 398 nM | – | – | 80 °C | 21 nM | 14 nM | CN(CCO)Cc1cc(C2CCCN2c2cc(F)cc(F)c2)c2nc(N3CCOCC3)cnc2c1 (centres unmarked) [Compound 101]
13 | 4 nM | 955 nM | 794 nM | > 30200 nM | 2400 nM | 71 nM | 52 nM | 211 °C | – | – | COC(=O)c1cc(C2CCCN2c2cc(F)cc(F)c2)c2nc(N3CCOCC3)cnc2c1 (single isomer, unassigned) [Compound 249]
14 | 17 nM | 5010 nM | > 30200 nM | > 30200 nM | > 30200 nM | – | – | 150 °C | 513 nM | 91 nM | Cc1c(F)cccc1NCc1cc(C(=O)N(C)C)cc2ncc(N3CCOCC3)nc12 [Compound 382]
15 | 0.2 nM | 36 nM | 813 nM | > 30200 nM | 4270 nM | 4 nM | 2 nM | 82 °C | – | – | CC(Nc1ccc(F)c(F)c1)c1cc(C(=O)N(C)CCN(C)C)cc2ncc(N3CCOCC3)nc12 (single isomer, unassigned) [Compound 349a]
16 | 2 nM | 158 nM | 112 nM | 1320 nM | 813 nM | > 513 nM | > 513 nM | 240 °C | – | – | CC(Nc1cc(F)cc(F)c1)c1cc(C(=O)O)cc2ncc(N3CCOCC3)nc12 (centres unmarked) [Compound 83a]
17 | 44 nM | 4070 nM | 4470 nM | > 30200 nM | > 30200 nM | – | – | 80 °C | > 513 nM | > 513 nM | CC(Nc1cc(C(=O)N(C)C)cc2ncc(N3CCOCC3)nc12)c1cc(F)cc(F)c1 (centres unmarked) [Compound 402]
18 | 1 nM | 245 nM | 302 nM | 18600 nM | 372 nM | 36 nM | 30 nM | 100 °C | – | – | Fc1cc(F)cc(N2CCCC2c2cncc3ncc(N4CCOCC4)nc23)c1 (single isomer, unassigned) [Compound 24]
19 | 10 nM | 939 nM | 2080 nM | 19100 nM | 8140 nM | 90 nM | 61 nM | 113 °C | – | – | CC(Nc1cc(F)c(F)c(F)c1)c1cc(C(=O)NC[C@@H](C)O)cc2ncc(N3CCOCC3)nc12 (single isomer, unassigned) [Compound 284a]
20 | 3 nM | 263 nM | 5750 nM | > 30200 nM | 26300 nM | – | – | 80 °C | 59 nM | 32 nM | CC(Nc1cc(Cl)cc(Cl)c1)c1cc(C(=O)N2CCOCC2)cc2ncc(N3CCOCC3)nc12 (centres unmarked) [Compound 133]
21 | 4 nM | 407 nM | 3720 nM | > 30200 nM | 28800 nM | 219 nM | – | 170 °C | – | 63 nM | CC(Nc1ccc(F)c(F)c1)c1cc(C(=O)N2CCN3CCC[C@@H]3C2)cc2ncc(N3CCOCC3)nc12 (some centres unmarked) [Compound 347]
22 | 1 nM | 96 nM | 692 nM | 8510 nM | 1290 nM | – | – | 80 °C | 56 nM | 32 nM | CC(Nc1cc(F)cc(F)c1)c1cc(CO)cc2ncc(N3CCOCC3)nc12 (centres unmarked) [Compound 84]

— US10526316B2, “Quinoxaline and pyridopyrazine derivatives as PI3Kβ inhibitors” (Janssen Pharmaceutica NV, priority 2015, dated 2020)
